# Data as given in patent US11390884B2, “Optimized CRISPR/cas9 systems and methods for gene editing in stem cells” (Editas Medicine, Inc., priority 2015, dated 2022).
# Where two headings read alike, the source gives them in different places. Peptide text beside a SMILES is read from it. * marks the point of attachment. Cbz = O=C(OCc1ccccc1)*
# Columns and labels:
# [1] = test system: human mobilized peripheral blood CD34^+ HSCs; test: Hematopoietic colony forming cell (CFC) assay in Methocult; format: cell-based; details: wild-type Cas9 and CCR5-U43 gRNA plasmid DNA; 40 nM UM171; two weeks
# Source text: […]; 345(6203):1509-1512). […] […].
# To evaluate maintenance of HSC potency and differentiation potential, two weeks after plating CD34^+ HSCs in CFC assays, hematopoietic activity was quantified based on scoring the HSC progeny by enumerating the total number of hematopoietic colony forming units (CFU) and the frequencies of specific blood cell phenotypes, including: mixed myeloid/erythroid (Granulocyte-erythroid-monocyte macrophage, CFU-GEMM), myeloid (CFU-macrophage (M), granulocyte-macrophage (CFU-GM)) and erythroid (CFU-E) colonies. […].
# To evaluate maintenance of HSC potency and differentiation potential, two weeks after plating CD34^+ HSCs in CFC assays, hematopoietic activity was quantified based on scoring the HSC progeny by enumerating the total number of hematopoietic colony forming units (CFU) and the frequencies of specific blood cell phenotypes, including: mixed myeloid/erythroid (Granulocyte-erythroid-monocyte macrophage, CFU-GEMM), myeloid (CFU-macrophage (M), granulocyte-macrophage (CFU-GM)) and erythroid (CFU-E) colonies. […]. […] After Nucleofection™, cells were replated into Stemspan-SFEM supplemented with SCF, TPO, FL and UM171. After overnight incubation, HSCs were replated in Stemspan-SFEM™ plus cytokines alone without UM171.
# To evaluate maintenance of HSC potency and differentiation potential, two weeks after plating CD34^+ HSCs in CFC assays, hematopoietic activity was quantified based on scoring the HSC progeny by enumerating the total number of hematopoietic colony forming units (CFU) and the frequencies of specific blood cell phenotypes, including: mixed myeloid/erythroid (Granulocyte-erythroid-monocyte macrophage, CFU-GEMM), myeloid (CFU-macrophage (M), granulocyte-macrophage (CFU-GM)) and erythroid (CFU-E) colonies. CD34^+ HSCs that were Nucleofected™ CD34^+ HSCs maintained CFC potential compared to un-Nucleofected™ HSCs (Table 14).
# HBB locus = test: Gene editing at the HBB locus in cord blood CD34+ HSCs (T7E1, DNA sequencing); format: cell-based, human; details: CB CD34+, enhancer 18 hours before and 3 days after electroporation with D10A Cas9 RNP, HBB-8/HBB-15, Phx ssODN, UM171 35 nM, UM171/SR-1 35/40 nM, rapamycin 5 nM, OxPAPC 30 μg/mL, bafilomycin A1 1 μM, MG132 0.5 μM
# Source text: Human CD34^+ HSCs cells were isolated from freshly obtained human umbilical cord blood by ficoll gradient density centrifugation followed by MACS® (antibody conjugated immunomagnetic bead sorting) with mouse anti-human CD34^+ immunomagnetic beads using the human CD34 cell enrichment kit and LS magnetic columns from Miltenyi Biotech. […] In the afternoon of day 3, 2.5 million CD34^+ cells per sample were suspended in electroporation buffer.
# In vitro transcribed capped and tailed guide gRNAs HBB-8 and HBB-15 were added at a 2:1 molar ratio (total gRNA:Cas9 protein) to 12.5 μg D10A nickase ribonucleoprotein (RNP) (5 μg RNP per million cells) to each of two samples each containing 2.5 million CB CD34^+ cells. A third CB CD34^+ cell aliquot was mixed with 25 μg D10A nickase RNP and HBB gRNAs (total gRNA:D10A ratio at 2:1).
# For all samples, the cells were collected from the cartridge and placed at 37° C. for 20 minutes (recovery period). For the CB CD34^+ HSCs that were contacted with 12.5 μg D10A nickase RNP, one sample was transferred to pre-warmed cytokine supplemented Stemspan-SFEM™ media and placed at 30° C. for 2 hours (cold shock samples) or placed directly into the same media at 37° C. For the cold shocked samples, the cells were transferred to the 37° C. incubator after the 2-hour incubation period at 30° C. […] Genomic DNA was extracted from the HSCs at 48 and 72 hours after electroporation and HBB locus-specific PCR reactions were performed. The purified PCR products were analyzed for insertions/deletions (indels) in T7E1 assays and by DNA sequencing of individual clones (PCR product was transformed and subcloned into TOPO-vector, individual colonies picked, and plasmid DNA containing individual PCR products were sequenced).
# Gene editing at the HBB locus was then evaluated at 72 hours after electroporation of D10A nickase RNP co-delivered with 2 gRNAs (HBB-8 and HBB-15). Briefly, gDNA was isolated from electroporated CD34^+ cells at 72 hours after electroporation, and PCR amplification of a ˜607 bp fragment of the HBB locus (which captures both of the individual genomic locations that were targeted by gRNAs HBB-8 and HBB-15) was performed. After cleanup of the HBB PCR product with AMPURE beads, insertions/deletions (indels) at the targeted genomic location were evaluated by T7E1 assay and by DNA sequencing.
# Human CD34^+ HSCs cells were isolated from freshly obtained human umbilical cord blood by ficoll gradient density centrifugation followed by MACS sorting with mouse anti-human CD34^+ immunomagnetic beads. […] In the afternoon of day 3, 2.2 million CD34^+ cells per sample were suspended in electroporation buffer.
# In vitro transcribed capped and tailed guide gRNAs HBB-8 and HBB-15 were added at a 2:1 molar ratio (total gRNA:Cas9 protein) to 10 μg RNP per million cells.
# For all samples, the cells were collected from the cartridge and placed at 37° C. for 20 minutes (recovery period).
# [2] = test system: human mobilized peripheral blood CD34^+ HSCs; details: Nucleofection with wild type Cas9 and CCR5-U43 gRNA plasmid DNA; short-term 40 nM UM171
# human CB CD34^+ HSCs [3] = test system: human CB CD34^+ HSCs
# Method: (§1) For all samples, the cells were collected from the cartridge and placed at 37° C. for 20 minutes (recovery period). […] For the cold shocked samples, the cells were transferred to the 37° C. incubator after the 2-hour incubation period at 30° C.
# (§2) For all samples, the cells were collected from the cartridge and placed at 37° C. for 20 minutes (recovery period). For the CB CD34^+ cells that were contacted with 10 μg D10A nickase RNP (per million cells), one sample was transferred to pre-warmed cytokine supplemented Stemspan-SFEM™ media and placed at 30° C. for 2 hours (cold shock recovery) or placed directly into the same media at 37° C. For the cold shocked samples, the cells were transferred to the 37° C. incubator after the 2-hour incubation period at 30° C.
# (§3) CB CD34^+ cells were pre-treated with each of these stem cell viability enhancers (Table 19) for 18 hours prior to electroporation with D10A Cas9 RNP, HBB-8 and HBB-15 modified gRNAs, and 5′ and 3′ phosphorothioate-modified ssODN donor template. After electroporation, cells were replated into HSC medium containing these stem cell viability enhancers and cultured for an additional 3 days.
# human CB CD34^+ HSCs [4] = test: Flow cytometry viability and stem cell phenotype of electroporated cord blood CD34+ cells
# Method: as §1, §2, §3
# [5] = Homo sapiens, read-out: % Viability of CD34^+ stem cells
compound,measurement,setting,value
"Cn1nnc(-c2ccc3c(c2)[nH]c2nc(Cc4ccccc4)nc(N[C@H]4CC[C@H](N)CC4)c23)n1 [UM171, (1r,4r)-N1-(2-benzyl-7-(2-methyl-2H-tetrazol-5-yl)-9H-pyrimido[4,5-b]indol-4-yl)cyclohexane-1,4-diamine]","Number of colony forming units, E (erythroid)",[1],92 colony forming units per 1500 CD34^+ HSCs plated
same,"Number of colony forming units, G",[1],40 colony forming units per 1500 CD34^+ HSCs plated
same,"Number of colony forming units, GEMM",[1],20 colony forming units per 1500 CD34^+ HSCs plated
same,"Number of colony forming units, GM",[1],32 colony forming units per 1500 CD34^+ HSCs plated
same,"Number of colony forming units, M",[1],64 colony forming units per 1500 CD34^+ HSCs plated
same,"Number of colony forming units, Total",[1],228 colony forming units per 1500 CD34^+ HSCs plated
same,% HDR,HBB locus,0%
same,% NHEJ,HBB locus,79%
same,% Total Gene Editing,HBB locus,79%
same,Fold-change in the number of live CD34^+ HSCs (96 hours),[2],1.5
"CO/C1=C\C(C)=C\[C@@H](C)[C@@H](O)[C@@H](C)C/C(C)=C/C=C/[C@H](OC)[C@@H]([C@@H](C)[C@@H](O)[C@H](C)[C@@]2(O)C[C@@H](O)[C@H](C)[C@@H](C(C)C)O2)OC1=O [Bafilomycin A1, reference compound]",% HDR,HBB locus,0%
same,% NHEJ,HBB locus,18%
same,% Total Gene Editing,HBB locus,18%
same,% Viability of CD34^+ stem cells,human CB CD34^+ HSCs [3],23%
"CO[C@H]1C[C@@H]2CC[C@@H](C)[C@@](O)(O2)C(=O)C(=O)N2CCCC[C@H]2C(=O)O[C@H]([C@H](C)C[C@@H]2CC[C@@H](O)[C@H](OC)C2)CC(=O)[C@H](C)/C=C(\C)[C@@H](O)[C@@H](OC)C(=O)[C@H](C)C[C@H](C)/C=C/C=C/C=C/1C [Rapamycin (sirolimus), Rapamycin, reference compound]",% HDR,HBB locus,7%
same,% NHEJ,HBB locus,46%
same,% Total Gene Editing,HBB locus,53%
same,viability at 0.005 µM,human CB CD34^+ HSCs [4]; [5],52%
"CC(C)C[C@@H](C=O)NC(=O)[C@H](CC(C)C)NC(=O)[C@H](CC(C)C)NC(=O)OCc1ccccc1 [MG132, benzyl (S)-4-methyl-1-((S)-4-methyl-1-((S)-4-methyl-1-oxopentan-2-ylamino)-1-oxopentan-2-ylamino)-1-oxopentan-2-ylcarbamate, reference compound] (Cbz-Leu-Leu-Leu-aldehyde)",% HDR,HBB locus,0%
same,% NHEJ,HBB locus,0%
same,% Total Gene Editing,HBB locus,0%
same,viability at 0.5 µM,human CB CD34^+ HSCs [4]; [5],19%
"oxidized 1-palmitoyl-2-arachidonyl-sn-glycero-3-phosphorylcholine [OxPAPC, reference compound]",% HDR,HBB locus,7%
same,% NHEJ,HBB locus,71%
same,% Total Gene Editing,HBB locus,78%
same,improvement in viability versus electroporated cells without pre-treatment,"human CB CD34^+ HSCs [4]; CB CD34+, OxPAPC 30 μg/mL pre-treatment 18 hours",20%
same,% Viability of CD34^+ stem cells,"human CB CD34^+ HSCs [4]; CB CD34+, enhancer 18 hours before and 3 days after electroporation with D10A Cas9 RNP, HBB-8/HBB-15, Phx ssODN, UM171 35 nM, UM171/SR-1 35/40 nM, rapamycin 5 nM, OxPAPC 30 μg/mL, bafilomycin A1 1 μM, MG132 0.5 μM",64%
